According to article PMC8289695 (Cell Reports, 2021):
pIC50: −log10 of the molar value. Like-named read-outs stand apart in the source and are kept apart here.

How the values were obtained:
SARS-CoV-2 [1] = test: microbe, parasite or virus in culture; type: cell-based, strain USA_WA1/2020
SARS-CoV-2 [2] = type: cell-based, strain USA_WA1/2020; settings: VPS34-IN1 5 μM, orlistat 500 μM, triacsin C 5 μM, TOFA 50 μM, 2-bromopalmitate 50 μM, A922500 30 μM, remdesivir 1 μM
SARS-CoV-2 [3] = type: cell-based, strain USA_WA1/2020
SARS-CoV-2 [4] = test: microbe, parasite or virus in culture; type: cell-based, strain USA_WA1/2020; settings: Severe acute respiratory syndrome coronavirus 2, Calu-3, read-out: IC50, infectious virus production (plaque assay)
Vero E6 cells = settings: concentrations below 16.67 μM of 10-point dose response
SARS-CoV-2 [5] = type: cell-based, strain USA_WA1/2020; remark: listed apart in the source
VPS34 = VPS34 (Homo sapiens, UniProt Q8NEB9); type: cell-based; settings: Huh7 cells, 24 h treatment; VPS34-IN1 2 μM, PIK-III 5 μM, SAR405 5 μM, Compound 19 5 μM, Orlistat 200 μM
Sequence of VPS34 (Q8NEB9 whole entry): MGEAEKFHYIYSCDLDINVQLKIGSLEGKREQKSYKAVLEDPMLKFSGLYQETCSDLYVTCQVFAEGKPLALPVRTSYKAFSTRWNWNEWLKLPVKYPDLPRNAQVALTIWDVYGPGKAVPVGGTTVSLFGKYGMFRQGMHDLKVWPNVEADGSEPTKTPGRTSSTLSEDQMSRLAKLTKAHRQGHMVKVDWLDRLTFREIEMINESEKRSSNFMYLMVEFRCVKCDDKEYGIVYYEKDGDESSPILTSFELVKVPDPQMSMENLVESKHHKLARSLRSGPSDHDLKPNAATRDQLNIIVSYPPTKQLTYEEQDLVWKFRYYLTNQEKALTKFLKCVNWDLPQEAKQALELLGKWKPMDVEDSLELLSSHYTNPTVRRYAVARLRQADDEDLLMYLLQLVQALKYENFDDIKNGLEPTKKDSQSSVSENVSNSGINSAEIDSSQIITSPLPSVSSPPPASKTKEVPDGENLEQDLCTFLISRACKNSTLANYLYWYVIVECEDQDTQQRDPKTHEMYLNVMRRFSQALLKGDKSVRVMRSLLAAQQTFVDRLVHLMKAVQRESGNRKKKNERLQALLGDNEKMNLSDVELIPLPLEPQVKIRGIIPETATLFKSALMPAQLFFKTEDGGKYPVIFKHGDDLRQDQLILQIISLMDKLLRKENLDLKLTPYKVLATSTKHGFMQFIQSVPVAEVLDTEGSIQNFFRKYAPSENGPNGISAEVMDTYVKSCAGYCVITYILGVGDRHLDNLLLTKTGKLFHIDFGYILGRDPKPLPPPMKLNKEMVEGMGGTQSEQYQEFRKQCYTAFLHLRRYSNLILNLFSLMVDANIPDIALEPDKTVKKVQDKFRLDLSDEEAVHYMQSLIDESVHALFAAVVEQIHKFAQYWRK

[6] = read-out: IC50, infectious virus production (focus forming assay)

Structure (SMILES): CCCCCCCCCCCCCCC(Br)C(=O)O (stereo not shown) [2-bromopalmitate]
- concentrations at which infectious virus production was inhibited (SARS-CoV-2 [1]): greater than 10 μM
- pIC50 (SARS-CoV-2 [1]; [6]): 4.64
- dsRNA and SARS-CoV-2 N distribution (replication centers) (SARS-CoV-2 [2]): fewer but larger foci positive for both markers
- viral RNA levels (SARS-CoV-2 [3]): reduced RNA levels at both MOI 0.01 and 1

Structure (SMILES): O=C(Nc1ccccc1)Nc1ccc(-c2ccc(C(=O)[C@@H]3CCC[C@H]3C(=O)O)cc2)cc1 [A922500]
- pIC50 (SARS-CoV-2 [1]; [6]): 5.40
- dsRNA and SARS-CoV-2 N distribution (replication centers) (SARS-CoV-2 [2]): loss of these distinct puncta and dispersion of dsRNA and SARS-CoV-2 N

Structure (SMILES): C=C1C(=O)OC(CCCCCCCC)C1C(=O)O (stereo not shown) [C75]
- pIC50 (SARS-CoV-2 [1]; [6]): 4.64

Structure (SMILES): Nc1ncc(-c2ccnc(Nc3ccncc3)n2)c(CC2CC2)n1 [PIK-III]
- pIC50 (SARS-CoV-2 [4]): 6.92
- toxicity at the remaining concentrations (resistance 1-20 hpi) (Vero E6 cells): no toxicity was observed

Structure (SMILES): C[C@@H]1COCCN1c1cc(=O)n2c(n1)N(Cc1cncc(Cl)c1)[C@H](C(F)(F)F)CC2 [SAR405]
- pIC50 (SARS-CoV-2 [1]; Severe acute respiratory syndrome coronavirus 2, Calu-3, read-out: IC50, infectious virus production (focus forming assay)): 6.42

Structure (SMILES): CCCCCCCCCCCCCCOc1ccc(C(=O)O)o1 [TOFA]
- pIC50 (SARS-CoV-2 [1]; [6]): 5.87
- dsRNA and SARS-CoV-2 N distribution (replication centers) (SARS-CoV-2 [2]): loss of these distinct puncta and dispersion of dsRNA and SARS-CoV-2 N

Structure (SMILES): CC(C)(O)CNc1ncc(-c2ccnc(Nc3ccnc(Cl)c3)n2)c(CC2CC2)n1 [VPS34-IN1]
- pIC50 (SARS-CoV-2 [4]): 6.26
- dsRNA and SARS-CoV-2 N distribution (replication centers) (SARS-CoV-2 [2]): loss of these distinct puncta and dispersion of dsRNA and SARS-CoV-2 N
- viral RNA levels (SARS-CoV-2 [3]): reduced RNA levels at both MOI 0.01 and 1
- toxicity at the remaining concentrations (resistance 1-20 hpi) (Vero E6 cells): no toxicity was observed

Structure (SMILES): CCOC(=O)[C@@]1(CCCCCCOc2ccc(Cl)cc2)CO1 [etomoxir]
- inhibition of SARS-CoV-2 (focus forming assay) (SARS-CoV-2 [1]): Neither compound showed any inhibition

Structure (SMILES): CCCCCCCCCCC[C@@H](C[C@@H]1OC(=O)[C@H]1CCCCCC)OC(=O)[C@H](CC(C)C)NC=O [orlistat]
- inhibition of viral cytopathic effects at highest concentration (SARS-CoV-2 [5]): complete inhibition was not achieved
- pIC50 (SARS-CoV-2 [4]): 4.67
- effect on GFP-2xFYVE localization to endosomes (puncta) (VPS34): did not affect GFP-2xFYVE localization
- dsRNA and SARS-CoV-2 N distribution (replication centers) (SARS-CoV-2 [2]): loss of these distinct puncta and dispersion of dsRNA and SARS-CoV-2 N
- viral RNA levels (SARS-CoV-2 [3]): reduced RNA levels at both MOI 0.01 and 1

Structure (SMILES): CCC(CC)COC(=O)[C@H](C)N[P@](=O)(OC[C@H]1O[C@@](C#N)(c2ccc3c(N)ncnn23)[C@H](O)[C@@H]1O)Oc1ccccc1 [remdesivir]
- dsRNA and SARS-CoV-2 N distribution (replication centers) (SARS-CoV-2 [2]): distribution of N and dsRNA similar to the DMSO control
- RNA synthesis at earlier time points (4 and 10 hpi) (SARS-CoV-2 [3]): inhibited RNA synthesis at earlier time points as well

Structure (SMILES): CCC/C=C/C/C=C/C=C/C=N/NN=O [triacsin C]
- pIC50 (SARS-CoV-2 [4]): 7.40
- dsRNA and SARS-CoV-2 N distribution (replication centers) (SARS-CoV-2 [2]): fewer but larger foci positive for both markers
- viral RNA levels (SARS-CoV-2 [3]): reduced RNA levels at both MOI 0.01 and 1

Structure (SMILES): COc1ccc(CN2CCNCC2)c(OC)c1OC [trimetazidine]
- inhibition of SARS-CoV-2 (focus forming assay) (SARS-CoV-2 [1]): Neither compound showed any inhibition
